In general, inhibition refers to the drop in the measured response relative to a control, in per cent.

This passage reports inhibition results from ChEMBL document CHEMBL1145665, “Tunicamycins, streptovirudins, and corynetoxins, a special subclass of nucleoside antibiotics” (J Nat Prod, 1983).

The species entered for one assay is Sus scrofa. The experiment in a line: Inhibition of pig aortic GlcNAc-1P-transferase-mediated […] formation at 0.5 to 1.5 ug/ml.
`CC(=O)N[C@H]1[C@@H](O[C@@H]2O[C@H](C[C@H](O)[C@H]3O[C@@H](n4ccc(=O)[nH]c4=O)[C@H](O)[C@@H]3O)[C@H](O)[C@H](O)[C@H]2NC(=O)/C=C/CCCCCCC(C)C)O[C@H](CO)[C@@H](O)[C@@H]1O` showed an inhibition of 50%.
On the same count and under the same terms, the value for `CC(=O)N[C@H]1[C@@H](O[C@@H]2O[C@H](C[C@H](O)[C@H]3O[C@@H](n4ccc(=O)[nH]c4=O)[C@H](O)[C@@H]3O)[C@H](O)[C@H](O)[C@H]2NC(=O)/C=C/CCCCCCCCC(C)C)O[C@H](CO)[C@@H](O)[C@@H]1O` was 50%.
Molecule `CC(=O)N[C@H]1[C@@H](O[C@@H]2O[C@H](C[C@H](O)[C@H]3O[C@@H](n4ccc(=O)[nH]c4=O)[C@H](O)[C@@H]3O)[C@H](O)[C@H](O)[C@H]2NC(=O)/C=C/CCCCCCCC(C)C)O[C@H](CO)[C@@H](O)[C@@H]1O` returned an inhibition of 50%.
`CCC(C)CCCCCCCC/C=C/C(=O)N[C@H]1[C@H](O[C@H]2O[C@H](CO)[C@@H](O)[C@H](O)[C@H]2NC(C)=O)O[C@H](C[C@H](O)[C@H]2O[C@@H](n3ccc(=O)[nH]c3=O)[C@H](O)[C@@H]2O)[C@H](O)[C@@H]1O` (stereo not given in full) registered an inhibition of 50%.
Same read-out and setting: the value for `CCC(C)CCCCCC/C=C/C(=O)N[C@H]1[C@H](O[C@H]2O[C@H](CO)[C@@H](O)[C@H](O)[C@H]2NC(C)=O)O[C@H](C[C@H](O)[C@H]2O[C@@H](n3ccc(=O)[nH]c3=O)[C@H](O)[C@@H]2O)[C@H](O)[C@@H]1O` (stereo not given in full) was 50%.

A further assay is filed under the species Sus scrofa. The assay can be described thus: Inhibition of pig aortic GlcNAc-1P-transferase-mediated […] formation at 50 to 100 ug/ml.
With `CCC(C)CCCCCCCC/C=C/C(=O)N[C@H]1[C@H](O[C@H]2O[C@H](CO)[C@@H](O)[C@H](O)[C@H]2NC(C)=O)O[C@H](C[C@H](O)[C@H]2O[C@@H](N3CCC(=O)NC3=O)[C@H](O)[C@@H]2O)[C@H](O)[C@@H]1O` (stereo not given in full), the inhibition came to 50%.
The molecule `CC(=O)N[C@H]1[C@@H](O[C@@H]2O[C@H](C[C@H](O)[C@H]3O[C@@H](N4CCC(=O)NC4=O)[C@H](O)[C@@H]3O)[C@H](O)[C@H](O)[C@H]2NC(=O)/C=C/CCCCCCCCC(C)C)O[C@H](CO)[C@@H](O)[C@@H]1O` came in with an inhibition of 50%.
On to `CC(=O)N[C@H]1[C@@H](O[C@@H]2O[C@H](C[C@H](O)[C@H]3O[C@@H](N4CCC(=O)NC4=O)[C@H](O)[C@@H]3O)[C@H](O)[C@H](O)[C@H]2NC(=O)/C=C/CCCCCCC(C)C)O[C@H](CO)[C@@H](O)[C@@H]1O`, for which the inhibition was found to be 50%.
On the same count and under the same terms, the value for `CCC(C)CCCCCC/C=C/C(=O)N[C@H]1[C@H](O[C@H]2O[C@H](CO)[C@@H](O)[C@H](O)[C@H]2NC(C)=O)O[C@H](C[C@H](O)[C@H]2O[C@@H](N3CCC(=O)NC3=O)[C@H](O)[C@@H]2O)[C@H](O)[C@@H]1O` (stereo not given in full) was 50%; that for `CC(=O)N[C@H]1[C@@H](O[C@@H]2O[C@H](C[C@H](O)[C@H]3O[C@@H](N4CCC(=O)NC4=O)[C@H](O)[C@@H]3O)[C@H](O)[C@H](O)[C@H]2NC(=O)/C=C/CCCCCCCC(C)C)O[C@H](CO)[C@@H](O)[C@@H]1O` was 50%.
